Measurements: US20210038681A1, “PHARMACEUTICAL COMPOSITION FOR TREATING VIRAL HEPATITIS C” (priority 2018, published 2021)
Where two headings read alike, the source gives them in different places.

Experiments:
[1] = test system: HCV 1a Wild-type replicon; test: microbe, parasite or virus in culture; details: Hepatitis C virus, Huh-7, read-out: Mean EC50 (nM) ± SD
[2] = test system: Wild-type HCV 1b replicon; type: cell-based; details: Hepatitis C virus, read-out: Mean EC50 (nM)
MDCK cells = details: MDCK cells, 10,000 nM
[3] = test system: human rhinovirus 16 (HRV-16); test: Virus-cell protection assay; type: cell-based; details: Rhinovirus A, HRV16; Virus HRV-16, cell line HeLa
[4] = test system: HCV genotype 1b replicon cells; test: Standard 3-day HCV replicon assay; type: cell-based; details: Hepatitis C virus, 72 h, 3 days, 5% fetal bovine serum
in vitro [5] = details: dog, MDCK cells (uninfected)
[6] = test system: HCV 4a NS5A L30H + Y93H replicon; type: cell-based; details: HCV genotype 4a, variant L30H + Y93H; EC50 relative to WT
Text: (§1) The susceptibility degrees of WT replicons in the transient assay were similar to the values obtained from a cell assay using the stable HCV replicons.

[7] = test system: HCV 6a NS5A F28S replicon; type: cell-based; details: HCV genotype 6a, variant F28S; EC50 relative to WT
Text: as §1

[8] = test system: HCV 1b L31V + Y93H replicon; type: cell-based; details: HCV genotype 1b, variant L31V + Y93H; EC50 relative to WT
Text: as §1

[9] = test system: HCV 2a NS5A F28S replicon; type: cell-based; details: HCV genotype 2a, variant F28S; EC50 relative to WT
Text: as §1

[10] = test system: HCV 3a NS5A Y93H replicon cells; type: cell-based; details: read-out: Mean EC50 (nM) ±SD; HCV genotype 3a, variant Y93H*; replicon cells from cell passage assay
in vitro [11] = details: human, HeLa cells (uninfected; HeLa H1A in the text)
[12] = test system: bovine viral diarrhea virus (BVDV); test: Virus-cell protection assay; type: cell-based; details: Bovine viral diarrhea virus isolates and strains, cell line BT
[13] = test system: HCV genotype 1a replicon cells; test: Standard 3-day HCV replicon assay; type: cell-based; details: Hepatitis C virus, 72 h, 3 days, 5% fetal bovine serum
HCV 4a NS5A WT replicon = test: microbe, parasite or virus in culture; type: cell-based
Text: as §1

HCV 2a NS5A WT replicon = test: microbe, parasite or virus in culture; type: cell-based
Text: as §1

[14] = test system: HCV 4a NS5A Y93H replicon; test: microbe, parasite or virus in culture; type: cell-based
Text: as §1

[15] = test system: HCV 4a NS5A L30H replicon; test: microbe, parasite or virus in culture; type: cell-based
Text: as §1

HCV 1a WT replicon = test: microbe, parasite or virus in culture; type: cell-based
Text: as §1

HCV 3a NS5A WT replicon = test: microbe, parasite or virus in culture; type: cell-based
Text: as §1

[16] = test system: HCV 4a NS5A P58L replicon; test: microbe, parasite or virus in culture; type: cell-based
Text: as §1

[17] = test system: HCV 2a NS5A Y93H replicon; test: microbe, parasite or virus in culture; type: cell-based
Text: as §1

HCV 1a M28T replicon = test: microbe, parasite or virus in culture; type: cell-based
Text: as §1

HCV 1a Y93N replicon = test: microbe, parasite or virus in culture; type: cell-based
Text: as §1

[18] = test system: HCV 5a NS5A L31F replicon; test: microbe, parasite or virus in culture; type: cell-based
Text: as §1

HCV 1b L31V replicon = test: microbe, parasite or virus in culture; type: cell-based
Text: as §1

HCV 1a Q30K replicon = test: microbe, parasite or virus in culture; type: cell-based
Text: as §1

HCV 6a NS5A WT replicon = test: microbe, parasite or virus in culture; type: cell-based
Text: as §1

HCV 1b L31F replicon = test: microbe, parasite or virus in culture; type: cell-based
Text: as §1

HCV 1b WT replicon = test: microbe, parasite or virus in culture; type: cell-based
Text: as §1

HCV 1a Y93H replicon = test: microbe, parasite or virus in culture; type: cell-based
Text: as §1

HCV 1b Y93H replicon = test: microbe, parasite or virus in culture; type: cell-based
Text: as §1

[19] = test system: HCV 1b L31F + Y93H replicon; test: microbe, parasite or virus in culture; type: cell-based
Text: as §1

HCV 1a Q30R replicon = test: microbe, parasite or virus in culture; type: cell-based
Text: as §1

HCV 5a NS5A WT replicon = test: microbe, parasite or virus in culture; type: cell-based
Text: as §1

HCV 1a Y93C replicon = test: microbe, parasite or virus in culture; type: cell-based
Text: as §1

BVDV, HRV-16, Flu-B = test: Virus-cell protection assay, all tested viruses; type: cell-based; details: Bovine viral diarrhea virus isolates and strains, HRV16, all of BVDV, read-out: EC50 against any of the tested viruses
in vitro [20] = details: cattle, BT cells (uninfected)
[21] = test system: HCV genotype 7a NS5A replicon cells; test: Standard 3-day HCV replicon assay; type: cell-based; details: Hepatitis C virus, 72 h
[22] = test system: HCV genotype 3a NS5A replicon cells; test: Standard 3-day HCV replicon assay; type: cell-based; details: Hepatitis C virus, 72 h
[23] = test system: HCV genotype 4a NS5A replicon cells; test: Standard 3-day HCV replicon assay; type: cell-based; details: Hepatitis C virus, 72 h
[24] = test system: influenza B virus (Flu-B); test: Virus-cell protection assay; type: cell-based; details: cell line MDCK
HeLa cells = details: HeLa H1A cells, 10,000 nM
[25] = test system: HCV genotype 2a NS5A replicon cells; test: Standard 3-day HCV replicon assay; type: cell-based; details: Hepatitis C virus, 72 h
[26] = test system: HCV genotype 6a NS5A replicon cells; test: Standard 3-day HCV replicon assay; type: cell-based; details: Hepatitis C virus, 72 h
[27] = test system: HCV genotype 5a NS5A replicon cells; test: Standard 3-day HCV replicon assay; type: cell-based; details: Hepatitis C virus, 72 h
[28] = Hepatitis C virus, read-out: Mean EC50 (nM) ±SD

CC(C)(C)OC(=O)N[C@H]1CCCCC/C=C\[C@@H]2C[C@@]2(C(=O)NS(=O)(=O)C2CC2)NC(=O)[C@@H]2C[C@@H](OC(=O)N3Cc4cccc(F)c4C3)CN2C1=O [ASC08, Danoprevir]
EC50 [1]: 5.4 nM | EC50 [2]: 0.7 nM

COC(=O)N[C@H](C(=O)N1CCC[C@H]1c1ncc(-c2ccc3cc(-c4ccc5nc([C@@H]6CCCN6C(=O)[C@@H](NC(=O)OC)C(C)C)[nH]c5c4)ccc3c2)[nH]1)C(C)C [ASC16, Ravidasvir]
cytotoxicity at the highest test concentration (MDCK cells): significant cytotoxicity | EC50 [3]: > 3300 nM | EC50 ([4]; read-out: EC50): 0.015 ng/mL | EC50 ([4]; read-out: EC50 (nM) Mean ± SD): 0.02 ± 0.002 nM | EC90 ([4]; read-out: EC90): 0.02 ng/mL | EC90 ([4]; read-out: EC90 (nM) Mean ± SD): 0.03 ± 0.004 nM | EC50 [1]: 0.03 nM | CC50 (in vitro [5]): > 5000 nM | Fold change [6]: 57,587 | Fold change [7]: 2,146 | Fold change [8]: 37,231 | Fold change [9]: 4,575 | EC50 [10]: 1040 nM | CC50 (in vitro [11]): > 3300 nM | EC50 [12]: > 10000 nM | EC50 ([13]; read-out: EC50): 0.09 ng/mL | EC50 ([13]; read-out: EC50 (nM) Mean ± SD): 0.12 ± 0.01 nM | EC90 ([13]; read-out: EC90): 0.24 ng/mL | EC90 ([13]; read-out: EC90 (nM) Mean ± SD): 0.32 ± 0.02 nM | Fold change (HCV 4a NS5A WT replicon; HCV genotype 4a, WT, EC50 relative to WT): 1 | EC50 (HCV 4a NS5A WT replicon; [28]): 0.02 ± 0.004 nM | Fold change (HCV 2a NS5A WT replicon; HCV genotype 2a, WT, EC50 relative to WT): 1 | EC50 (HCV 2a NS5A WT replicon; [28]): 0.12 ± 0.06 nM | Fold change ([14]; HCV genotype 4a, variant Y93H, EC50 relative to WT): 210 | EC50 [14, 28]: 3.2 ± 0.2 nM | Fold change ([15]; HCV genotype 4a, variant L30H, EC50 relative to WT): 887 | EC50 [15, 28]: 14 ± 0.8 nM | Fold change (HCV 1a WT replicon; HCV genotype 1a, WT, EC50 relative to WT): 1 | EC50 (HCV 1a WT replicon; [28]): 0.03 ± 0.002 nM | Fold change (HCV 3a NS5A WT replicon; HCV genotype 3a, WT, EC50 relative to WT): 1 | EC50 (HCV 3a NS5A WT replicon; [28]): 1.2 nM | Fold change ([16]; HCV genotype 4a, variant P58L, EC50 relative to WT): 197 | EC50 [16, 28]: 3 ± 0.09 nM | Fold change ([17]; HCV genotype 2a, variant Y93H, EC50 relative to WT): 816 | EC50 [17, 28]: 96 ± 23 nM | Fold change (HCV 1a M28T replicon; HCV genotype 1a, variant M28T, EC50 relative to WT): 189 | EC50 (HCV 1a M28T replicon; [28]): 5.5 ± 2.8 nM | Fold change (HCV 1a Y93N replicon; HCV genotype 1a, variant Y93N, EC50 relative to WT): 3,876 | EC50 (HCV 1a Y93N replicon; Hepatitis C virus, read-out: Mean EC50 (nM) ±SD, HCV genotype 1a, variant Y93N): > 100 nM | EC50 (HCV 1a Y93N replicon; read-out: Mean EC50 (nM) ±SD, HCV genotype 1a, variant Y93N): 113 ± 7.3 nM | Fold change ([18]; HCV genotype 5a, variant L31F, EC50 relative to WT): 76 | EC50 [18, 28]: 6.1 ± 0.8 nM | Fold change (HCV 1b L31V replicon; HCV genotype 1b, variant L31V, EC50 relative to WT): 85 | EC50 (HCV 1b L31V replicon; [28]): 0.9 ± 0.1 nM | Fold change (HCV 1a Q30K replicon; HCV genotype 1a, variant Q30K, EC50 relative to WT): 2,965 | EC50 (HCV 1a Q30K replicon; [28]): 87 ± 17 nM | Fold change (HCV 6a NS5A WT replicon; HCV genotype 6a, WT, EC50 relative to WT): 1 | EC50 (HCV 6a NS5A WT replicon; [28]): 0.2 ± 0.04 nM | Fold change (HCV 1b L31F replicon; HCV genotype 1b, variant L31F, EC50 relative to WT): 4.0 | EC50 (HCV 1b L31F replicon; [28]): 0.05 ± 0.009 nM | Fold change (HCV 1b WT replicon; HCV genotype 1b, WT, EC50 relative to WT): 1 | EC50 (HCV 1b WT replicon; [28]): 0.01 ± 0.003 nM | Fold change (HCV 1a Y93H replicon; HCV genotype 1a, variant Y93H, EC50 relative to WT): 1,630 | EC50 (HCV 1a Y93H replicon; [28]): 48 ± 1 nM | Fold change (HCV 1b Y93H replicon; HCV genotype 1b, variant Y93H, EC50 relative to WT): 81 | EC50 (HCV 1b Y93H replicon; [28]): 0.9 ± 0.06 nM | Fold change ([19]; HCV genotype 1b, variant L31F + Y93H, EC50 relative to WT): 2,541 | EC50 [19, 28]: 28 ± 5.4 nM | Fold change (HCV 1a Q30R replicon; HCV genotype 1a, variant Q30R, EC50 relative to WT): 168 | EC50 (HCV 1a Q30R replicon; [28]): 4.9 ± 1.3 nM | Fold change (HCV 5a NS5A WT replicon; HCV genotype 5a, WT, EC50 relative to WT): 1 | EC50 (HCV 5a NS5A WT replicon; [28]): 0.08 ± 0.04 nM | Fold change (HCV 1a Y93C replicon; HCV genotype 1a, variant Y93C, EC50 relative to WT): 169 | EC50 (HCV 1a Y93C replicon; [28]): 5 ± 0.4 nM | EC50 (BVDV, HRV-16, Flu-B): > 3300 nM | EC50 [2]: 0.01 nM | CC50 (in vitro [20]): > 10000 nM | EC50 [21]: 0.06 ng/mL | EC90 [21]: 0.17 ng/mL | EC50 ([21]; read-out: EC50 (nM) Mean ± SD): 0.07 ± 0.02 nM | EC90 ([21]; read-out: EC90 (nM) Mean ± SD): 0.2 ± 0.05 nM | EC50 [22]: 0.95 ng/mL | EC90 [22]: 2.8 ng/mL | EC50 ([22]; read-out: EC50 (nM) Mean ± SD): 1.14 ± 0.3 nM | EC90 ([22]; read-out: EC90 (nM) Mean ± SD): 3.35 ± 1.3 nM | EC50 [23]: 0.04 ng/mL | EC90 [23]: 0.11 ng/mL | EC50 ([23]; read-out: EC50 (nM) Mean ± SD): 0.05 ± 0.01 nM | EC90 ([23]; read-out: EC90 (nM) Mean ± SD): 0.13 ± 0.015 nM | EC50 [24]: > 5000 nM | cytotoxicity at the highest test concentration (HeLa cells): significant cytotoxicity | EC50 [25]: 0.12 ng/mL | EC90 [25]: 0.38 ng/mL | EC50 ([25]; read-out: EC50 (nM) Mean ± SD): 0.14 ± 0.03 nM | EC90 ([25]; read-out: EC90 (nM) Mean ± SD): 0.45 ± 0.1 nM | EC50 [26]: 0.25 ng/mL | EC90 [26]: 0.92 ng/mL | EC50 ([26]; read-out: EC50 (nM) Mean ± SD): 0.3 ± 0.1 nM | EC90 ([26]; read-out: EC90 (nM) Mean ± SD): 1.1 ± 0.3 nM | EC50 [27]: 0.03 ng/mL | EC90 [27]: 0.1 ng/mL | EC50 ([27]; read-out: EC50 (nM) Mean ± SD): 0.04 ± 0.01 nM | EC90 ([27]; read-out: EC90 (nM) Mean ± SD): 0.12 ± 0.02 nM
